Data published in patent publication US9359419B2, “Treatment of vascular complications of diabetes” (priority 2010, dated 2016).
“Also recorded” adds a separate entry of the source.

Columns and labels:
fresh human whole blood = assay: Release of Interleukin-6 from fresh human whole blood (ELISA); format: cell-based; set-up: Concentration of IL-6: unit of the concentration uncertain; conditions: for Concentration of IL-6: 24 hours, n = 5
Method: It was the goal of this study to determine the pro-inflammatory signalling capacity of the AP301 peptide. Whole blood cultures were used and the secretion of interleukin-6 (IL-6), a very sensitive marker for pro-inflammatory stimulation, was quantified by ELISA.
• Test system 25 ml of freshly taken heparinized blood from 5 healthy volunteers (HV) was used in the assays. […]
Whole blood (WB) cultures were done by pipetting 1 ml of WB into wells of 24 well plates. In each experiment unstimulated and control-stimulated cultures were included.
If possible the substances and stimulants to be investigated were always added in an identical volume to each well of a given experiment, not greater than 10% of the total volume contained in a well. Unstimulated controls received PBS. Volume adjustments and dilutions for different treatments were also done with PBS.
The content of each well was mixed and the plates incubated at 37° C. and 5% CO2 for 24 hours. After incubation the content of each well was transferred to a fresh 1.5 ml microtube and centrifuged at 8000-9000×g for 15 minutes. The supernatant of each sample was transferred individually to two 1.5 ml microtubes and kept at −20° C. until use.
Interleukin-6 was quantified by a specific ELISA (Human IL-6 ELISA Set, BD Biosciences, Cat. No. 555220) employing an anti-human IL-6 antibody as capture antibody, a biotinylated anti-human IL-6 detection antibody, avidin-horseradish peroxidase conjugate as enzyme reagent, and recombinant IL-6 as standard. Absorbance measurement was performed at 450 nm using the Packard FusionReader.
The results for each plate were stored and evaluated using the FusionDataAnalysis software. […]

STZ-treated rats = conditions: rat, in vivo
perfused rat hearts = assay: Cardiac permeability by BSA-FITC perfusion (Langendorff method) of hearts from STZ-treated rats; format: in vivo; conditions: 125 μg/rat over 4 wks i.p.
Method: Following the same protocol as above, hearts from Ctrl, STZ-treated and TIP/STZ treated rats were isolated after 4 wks. The hearts were perfused using the Langendorff method with BSA-FITC (Di Napoli et al., Nitric Oxide 16 (2007), 228-236). Hearts were subsequently frozen in liquid nitrogen and slices were cut with a microtome. Subsequently, fluorescence was assessed in 4 slices of each heart and cumulative fluorescence responses were recorded.

[1] = system: U46619-contracted septal coronary arteries; assay: Acetylcholine-induced vasorelaxation of septal coronary arteries from STZ-induced diabetic rats; format: in vivo, rat; conditions: TIP peptide 125 μg i.p. every three days for four weeks, vs STZ group, n=3
Source text: and tested for their ability to relax in response to progressive concentrations of acetylcholine. The vasorelaxant responses are expressed as percent of maximal control relaxation.

C[C@@H]1NC(=O)CNC(=O)[C@H](CCC(=O)O)NC(=O)[C@@H]2CCCN2C(=O)[C@H]([C@@H](C)O)NC(=O)[C@H](CCC(=O)O)NC(=O)[C@H](CCCNC(=N)N)NC(=O)[C@H](CCC(N)=O)NC(=O)CNC(=O)[C@@H](N)CSSC[C@@H](C(=O)O)NC(=O)[C@H](Cc2ccc(O)cc2)NC(=O)[C@H](Cc2c[nH]c3ccccc23)NC(=O)[C@@H]2CCCN2C(=O)[C@H](CCCCN)NC(=O)[C@H](C)NC(=O)[C@H](CCC(=O)O)NC1=O [AP301, (NH2) Cys-Gly-Gln-Arg-Glu-Thr-Pro-Glu-Gly-Ala-Glu-Ala-Lys-Pro-Trp-Tyr-Cys (COOH)]
Concentration of IL-6 (fresh human whole blood; concentration 1 ng/ml): less than 0.5 pg/ml | Concentration of IL-6 (fresh human whole blood; concentration 3 ng/ml): less than 0.5 pg/ml | Concentration of IL-6 (fresh human whole blood; concentration 1 (unit uncertain)): less than 0.5 pg/ml | Concentration of IL-6 (fresh human whole blood; concentration 10 (unit uncertain)): less than 0.5 pg/ml | IL-6 secretion (pro-inflammatory response) (fresh human whole blood; whole blood cultures from five healthy donors, all concentrations tested (10 μg/ml to 1 ng/ml)): did not induce any detectable level of IL-6 secretion; also recorded: did not induce a pro-inflammatory response | weight (STZ-treated rats): increased weight loss | cardiac permeability (Albumin-FITC incorporation) (perfused rat hearts): significantly inhibits cardiac hyperpermeability | cardiac permeability (Albumin-FITC incorporation) (perfused rat hearts; listed as TIP peptide): inhibits STZ-associated cardiac permeability | acetylcholine-induced vasorelaxation response in septal coronary arteries [1]: significantly improved the vasorelaxation response
